Results reported in article PMC5724969 (Nature chemical biology, 2017).
Where two headings read alike, the source gives them in different places.

Test system: chPylRS (chimeric pyrrolysyl-tRNA synthetase)
Assay: […]-tRNA aminoacylation assay, nuclease P1/TLC
Format: biochemical, Methanosarcina mazei; Methanosarcina barkeri
Details: tRNA(Pyl), 10 mM MgCl2, pH 7.2

Km (read-out: KM ^ATP, BocK as amino acid)	Structure (SMILES)	Km (read-out: KM^BocK, ATP)
–	CC(C)(C)OC(=O)NCCCC[C@H](N)C(=O)O [compound 2, BocK]	1030 ± 50 µM
2.54 ± 0.16 µM	Nc1ncnc2c1ncn2[C@@H]1O[C@H](COP(=O)(O)OP(=O)(O)OP(=O)(O)O)[C@@H](O)[C@H]1O [ATP]	–
